The source made the active and inactive calls.
Columns and labels:
[1] = biological target: FAD-linked sulfhydryl oxidase ALR (Homo sapiens, UniProt P55789); experiment: inhibitors of human ALR sulfhydryl oxidase, dose response, biochemical, H2O2 detection, luminescence, cherry-pick (AID 493248)
[2] = biological target: Nonstructural protein 1 (Influenza A virus, UniProt Q194T2); format: functional, Influenza A virus (A/California/07/2009(H1N1))
[3] = biological target: T1, Polyadenylate-binding protein 1 (Homo sapiens, UniProt P11940); experiment: PABP1 MLLE–PAM2 interaction inhibitors, dose response, miRNA deadenylation inhibitor project, biochemical, fluorescence polarization, Cy5-PAM2 peptide, secondary (AID 602260); format: functional; settings: read-out: IC50_Mean
T1 sequence (P11940 whole entry): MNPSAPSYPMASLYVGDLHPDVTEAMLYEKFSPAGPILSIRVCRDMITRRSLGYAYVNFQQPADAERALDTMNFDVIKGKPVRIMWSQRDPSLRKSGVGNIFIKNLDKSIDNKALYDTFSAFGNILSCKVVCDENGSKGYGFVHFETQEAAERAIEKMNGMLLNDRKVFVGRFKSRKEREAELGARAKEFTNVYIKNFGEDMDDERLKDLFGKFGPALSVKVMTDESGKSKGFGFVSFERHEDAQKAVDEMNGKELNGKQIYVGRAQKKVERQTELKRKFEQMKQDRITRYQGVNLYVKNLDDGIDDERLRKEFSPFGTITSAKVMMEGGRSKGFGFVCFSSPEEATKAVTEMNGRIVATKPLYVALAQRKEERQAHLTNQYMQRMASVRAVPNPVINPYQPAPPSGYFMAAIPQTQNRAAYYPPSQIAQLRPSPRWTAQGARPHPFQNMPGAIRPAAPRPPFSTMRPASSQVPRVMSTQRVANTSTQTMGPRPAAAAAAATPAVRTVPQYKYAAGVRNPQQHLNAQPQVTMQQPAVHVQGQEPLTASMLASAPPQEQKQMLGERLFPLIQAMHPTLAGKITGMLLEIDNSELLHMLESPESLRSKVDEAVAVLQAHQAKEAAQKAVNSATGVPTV

[4] = biological target: T1, Polyadenylate-binding protein 1; experiment: PABP1 MLLE–PAM2 binding inhibitor potency, dose response, biochemical, fluorescence polarization, FITC-PAM2 peptide (AID 602259); format: functional; settings: read-out: IC50_Mean
[5] = cells; format: functional
[6] = biological target: Cytochrome P450 2D6 (Homo sapiens, UniProt P10635);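 further: CYP2D6 member of a cytochrome P450 panel assay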
Cytochrome P450 2D6, sequence (P10635 whole entry): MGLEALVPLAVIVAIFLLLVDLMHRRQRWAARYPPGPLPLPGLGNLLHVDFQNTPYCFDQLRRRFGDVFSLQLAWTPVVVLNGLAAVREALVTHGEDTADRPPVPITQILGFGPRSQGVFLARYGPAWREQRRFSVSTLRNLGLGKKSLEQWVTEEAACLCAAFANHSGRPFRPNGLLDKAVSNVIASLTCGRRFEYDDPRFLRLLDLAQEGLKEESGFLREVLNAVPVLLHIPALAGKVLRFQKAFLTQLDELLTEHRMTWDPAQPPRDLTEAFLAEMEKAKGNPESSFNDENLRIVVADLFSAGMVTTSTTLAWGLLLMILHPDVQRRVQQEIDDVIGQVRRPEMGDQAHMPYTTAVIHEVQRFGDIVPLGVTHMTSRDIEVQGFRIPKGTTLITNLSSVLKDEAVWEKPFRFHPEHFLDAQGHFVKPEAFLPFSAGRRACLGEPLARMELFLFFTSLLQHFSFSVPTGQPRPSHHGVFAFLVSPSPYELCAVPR

[7] = biological target: Cytochrome P450 3A4 (Homo sapiens, UniProt P08684);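 further: CYP3A4 tested as one member of a cytochrome P450 panel screen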
Cytochrome P450 3A4, sequence (P08684 whole entry): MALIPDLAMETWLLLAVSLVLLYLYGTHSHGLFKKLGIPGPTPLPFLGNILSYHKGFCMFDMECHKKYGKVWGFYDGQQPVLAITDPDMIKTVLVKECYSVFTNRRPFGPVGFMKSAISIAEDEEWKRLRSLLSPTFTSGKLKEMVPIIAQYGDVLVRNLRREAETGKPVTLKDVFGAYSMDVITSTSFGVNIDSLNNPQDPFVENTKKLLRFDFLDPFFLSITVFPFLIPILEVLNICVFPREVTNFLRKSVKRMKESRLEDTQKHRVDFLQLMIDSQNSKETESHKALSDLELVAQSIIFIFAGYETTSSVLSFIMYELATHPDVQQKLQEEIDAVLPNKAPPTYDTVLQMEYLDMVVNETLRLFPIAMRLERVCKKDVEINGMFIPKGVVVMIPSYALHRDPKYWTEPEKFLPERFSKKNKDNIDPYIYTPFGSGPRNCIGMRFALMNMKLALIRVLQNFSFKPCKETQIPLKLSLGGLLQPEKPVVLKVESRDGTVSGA

[8] = biological target: Cytochrome P450 2C9 (Homo sapiens, UniProt P11712)
Cytochrome P450 2C9, sequence (P11712 whole entry, the tested form may be a part): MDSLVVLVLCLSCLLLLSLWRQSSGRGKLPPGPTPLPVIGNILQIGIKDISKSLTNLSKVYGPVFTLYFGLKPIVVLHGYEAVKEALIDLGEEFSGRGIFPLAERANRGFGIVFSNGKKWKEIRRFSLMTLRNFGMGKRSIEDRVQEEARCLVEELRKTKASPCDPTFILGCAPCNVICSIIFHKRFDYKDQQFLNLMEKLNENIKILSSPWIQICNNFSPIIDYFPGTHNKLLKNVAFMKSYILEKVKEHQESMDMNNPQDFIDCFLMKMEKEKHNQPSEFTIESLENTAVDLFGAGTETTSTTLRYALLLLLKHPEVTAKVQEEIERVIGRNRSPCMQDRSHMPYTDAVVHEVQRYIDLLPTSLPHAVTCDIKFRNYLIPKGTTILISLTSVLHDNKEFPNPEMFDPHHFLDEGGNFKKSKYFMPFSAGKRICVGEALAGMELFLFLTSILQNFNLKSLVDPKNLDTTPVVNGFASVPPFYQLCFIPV

[9] = biological target: T2, Carboxy-terminal domain RNA polymerase II polypeptide A small phosphatase 1 (Homo sapiens, UniProt Q9GZU7); experiment: inhibitors of CTDSP1, concentration-response testing, biochemical assay, absorbance-based, actives from ultra-high-throughput screening (AID 540297); format: functional
T2 sequence (Q9GZU7 whole entry): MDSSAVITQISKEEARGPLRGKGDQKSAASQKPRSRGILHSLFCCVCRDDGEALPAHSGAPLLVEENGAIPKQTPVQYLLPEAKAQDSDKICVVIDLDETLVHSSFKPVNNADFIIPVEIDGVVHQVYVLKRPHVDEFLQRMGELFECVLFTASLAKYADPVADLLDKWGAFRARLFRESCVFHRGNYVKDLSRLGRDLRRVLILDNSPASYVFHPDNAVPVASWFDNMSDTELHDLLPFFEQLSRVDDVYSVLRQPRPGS

[10] = inhibitors of firefly luciferase expression or activity, dose response, H4 neuroglioma cells, luminescence (AID 1990); format: functional, cell-based
[11] = Luminescence Cell-Based Dose Response HTS to Identify Inhibitors of 5'UTR Stem-Loop Driven Prion Protein mRNA Translation in H4 Neuroglioblastoma Cells. [Related pubchem assays: 1827 (Project Summary), 1813 (Primary HTS)]; format: functional
[12] = inhibitors of SNCA 5'UTR-driven reporter translation, confirmation, H4 neuroglioma cells, luminescence (AID 1988); format: functional, cell-based
[13] = biological target: Luciferin 4-monooxygenase (Photinus pyralis, UniProt P08659); experiment: firefly luciferase enzyme inhibitors, dose response, biochemical, luminescence (AID 1891)
Luciferin 4-monooxygenase, sequence (P08659 whole entry): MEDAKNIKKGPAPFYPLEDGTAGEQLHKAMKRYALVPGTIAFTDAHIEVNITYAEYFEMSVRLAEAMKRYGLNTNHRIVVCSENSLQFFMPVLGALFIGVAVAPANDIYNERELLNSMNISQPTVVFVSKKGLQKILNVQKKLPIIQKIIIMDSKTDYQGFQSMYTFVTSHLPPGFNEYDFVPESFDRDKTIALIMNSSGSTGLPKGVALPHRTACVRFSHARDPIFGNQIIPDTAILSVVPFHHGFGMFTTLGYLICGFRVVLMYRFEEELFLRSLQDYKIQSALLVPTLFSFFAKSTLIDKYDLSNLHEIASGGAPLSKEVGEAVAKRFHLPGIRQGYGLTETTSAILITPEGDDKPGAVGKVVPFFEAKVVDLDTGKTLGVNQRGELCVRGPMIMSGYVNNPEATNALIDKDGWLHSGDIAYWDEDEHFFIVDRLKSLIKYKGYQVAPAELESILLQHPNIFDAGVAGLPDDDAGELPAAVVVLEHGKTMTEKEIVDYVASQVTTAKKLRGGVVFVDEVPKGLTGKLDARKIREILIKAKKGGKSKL

[14] = Luminescence Cell-Based Dose Confirmation HTS to Identify Inhibitors of Platelet Dense Granule Release. [Related pubchem assays: 1663 (Primary HTS), 1678 (Summary of Project)]; format: functional
[15] = biological target: T3, RNA-binding protein pos-1 (Caenorhabditis elegans, UniProt G5EF15); experiment: inhibitors of POS-1/mex-3 RNA binding, dose response, biochemical, fluorescence polarization (AID 1964);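 further: purified POS-1 fused to maltose binding protein made in E. coli; potency of compounds blocking POS-1 binding to fluorescent RNA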
T3 sequence (G5EF15 whole entry): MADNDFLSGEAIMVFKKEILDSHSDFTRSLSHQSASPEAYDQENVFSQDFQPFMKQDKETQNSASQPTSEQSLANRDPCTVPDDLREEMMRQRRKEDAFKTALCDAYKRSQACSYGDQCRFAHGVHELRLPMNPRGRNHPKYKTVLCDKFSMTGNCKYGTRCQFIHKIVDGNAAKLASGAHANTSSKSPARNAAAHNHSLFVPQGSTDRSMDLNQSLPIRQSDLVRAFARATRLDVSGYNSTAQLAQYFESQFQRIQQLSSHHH

[16] = biological target: T4, Zinc finger protein mex-5 (Caenorhabditis elegans, UniProt Q9XUB2); experiment: MEX-5/TCR-2 RNA interaction inhibitors, dose response, biochemical, C. elegans, fluorescence polarization (AID 1960)
T4 sequence (Q9XUB2 whole entry): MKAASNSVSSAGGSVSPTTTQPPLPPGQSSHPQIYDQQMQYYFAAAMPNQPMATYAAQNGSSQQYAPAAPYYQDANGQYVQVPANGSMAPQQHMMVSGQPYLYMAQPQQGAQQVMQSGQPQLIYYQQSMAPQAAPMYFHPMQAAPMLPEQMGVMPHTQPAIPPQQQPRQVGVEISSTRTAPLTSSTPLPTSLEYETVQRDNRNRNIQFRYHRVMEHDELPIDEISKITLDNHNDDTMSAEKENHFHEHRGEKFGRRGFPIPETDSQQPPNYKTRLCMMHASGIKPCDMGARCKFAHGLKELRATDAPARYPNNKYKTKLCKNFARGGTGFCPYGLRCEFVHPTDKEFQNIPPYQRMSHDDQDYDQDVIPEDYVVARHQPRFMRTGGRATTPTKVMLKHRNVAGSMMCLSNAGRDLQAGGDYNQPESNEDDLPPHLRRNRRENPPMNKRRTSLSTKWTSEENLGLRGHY

[17] = Luminescence Cell-Based Dose Retest to Confirm Inhibitors of Cancer Stem Cells. [Related pubchem assays (depositor defined):AID2717, AID2721]; format: functional; settings: Homo sapiens
[18] = test system: INS1; experiment: beta cell apoptosis inhibitors, cytokine rescue, dose response, luminescence, retest (AID 449756); format: functional, cell-based; settings: Rattus norvegicus;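 further: cell death triggered by IL-1 beta plus TNF-alpha plus IFN-gamma mixture; protective hits raise ATP signal compared with cytokine alone wells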
[19] = inhibitors of intracellular T. cruzi replication, confirmation, NIH3T3 host cells, beta-gal luminescence (AID 2044); format: functional, cell-based;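 further: intracellular parasites grown in NIH/3T3 mouse fibroblasts as host cells; luminescent beta-galactosidase reporter signal from transgenic T. cruzi replicating inside host cells; inhibitors lower the luminescence signal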
[20] = cytotoxicity toward NIH3T3 fibroblasts, dose response, counter-screen, cell-based, ATP luminescence, mouse fibroblasts (AID 2010); format: functional;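 further: cells exposed to compound for about 90 hours before reading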

FAD-linked sulfhydryl oxidase ALR, sequence (P55789 whole entry): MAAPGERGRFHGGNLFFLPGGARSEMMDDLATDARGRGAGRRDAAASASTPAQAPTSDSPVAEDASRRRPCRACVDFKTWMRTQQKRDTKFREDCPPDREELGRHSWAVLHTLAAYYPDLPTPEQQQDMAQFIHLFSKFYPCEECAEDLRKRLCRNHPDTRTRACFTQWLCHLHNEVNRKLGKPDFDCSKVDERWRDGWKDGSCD
Nonstructural protein 1, sequence (Q194T2 whole entry): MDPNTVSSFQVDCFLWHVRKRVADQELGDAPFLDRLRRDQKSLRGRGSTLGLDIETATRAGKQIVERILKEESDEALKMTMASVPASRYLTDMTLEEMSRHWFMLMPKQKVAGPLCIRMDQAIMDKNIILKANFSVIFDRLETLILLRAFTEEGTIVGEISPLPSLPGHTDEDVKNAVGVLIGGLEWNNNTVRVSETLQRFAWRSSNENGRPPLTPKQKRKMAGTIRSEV

In the case of `O=C(CN1CCN(c2ccc(Cl)cc2)CC1)N1CCCC1`, the AC50 [1] is reported as 0.657 µM (active).

For `CN(CC(=O)Nc1cccc2ccccc12)C(=O)c1ccc(NC(=O)CC#N)cc1`, the AC50 [1] was 6.29 µM (active).

In the case of `Cc1onc(-c2ccccc2Cl)c1C(=O)NCCn1c(C)cc2ccccc21`, the IC50 [2] is reported as > 100 µM (active).

For `CCc1c(O)n(-c2ccccc2C)c(SCC(=O)Nc2ccccc2OC)nc1=O`, the IC50 [3] was > 66 µM (inactive) and the IC50 [4] was > 66 µM (inactive).

For `O=C(OCc1ccccn1)c1ccc(COc2ccccc2Cl)o1`, the IC50 [5] was 35.1 µM (active), the AC50 [6] was 17.8 µM (inconclusive) and the AC50 [7] was 31.6 µM (inconclusive). The AC50 [8] was 39.8 µM (inconclusive).

In the case of `O=C(COc1ccc(-n2cnnn2)cc1)Nc1ccccc1Cl`, the IC50 [9] is reported as 11.4 µM (active).

For `O=S(=O)(NCCc1csc(-c2cccnc2)n1)c1ccc2c(c1)OCCO2`, the EC50 [10] was > 120 µM (not active), the EC50 [11] was 16.4 µM (active) and the EC50 [12] was > 120 µM (not active). For the same compound, the EC50 [13] was > 112 µM (not active) and the EC50 [14] was > 112 µM (not active).

With `Cc1ccc2[nH]c(C(=O)O)c(-c3ccccc3)c2c1` the AC50 [1] was 4.49 µM (active).

In the case of `c1ccc(-c2cn(C[C@H]3CC[C@H](Cn4cc(-c5ccccn5)nn4)O3)nn2)nc1`, the IC50 [2] is reported as 3.19 µM (active).

With `COc1ccc(OC)c(C(=O)c2coc3ccc(O)c(CN4CCOCC4)c23)c1` the EC50 [15] was > 300 µM (not active) and the EC50 [16] was > 300 µM (not active).

In the case of `CC(C)c1nnc(NC(=O)CS(=O)(=O)Cc2ccccc2)s1`, the IC50 [3] is reported as > 66 µM (inactive) and the IC50 [4] is reported as > 66 µM (inactive).

With `COc1ccc(NS(=O)(=O)c2ccc(NC(=S)NC(=O)c3cccc(F)c3)cc2)nn1` the IC50 [3] was > 66 µM (inactive) and the IC50 [4] was > 66 µM (inactive).

For `CCCCC1=CC2=CC(=O)C(C)(OC(=O)c3ccc(Cl)nc3)C(=O)C2=CO1` (centres undefined), the EC50 [15] was 21.7 µM (active) and the EC50 [16] was 21.6 µM (active).

With `CO/N=C/CC(=O)c1ccc(OC)cc1` the IC50 [5] was 22.9 µM (active).

In the case of `N#Cc1nc(-c2cccs2)oc1NCCc1ccccc1`, the IC50 [5] is reported as 7.45 µM (active).

For `CCCCN=C(S)Nc1ccc(OC)nc1`, the IC50 [3] was > 66 µM (inactive) and the IC50 [4] was 43.7 µM (inactive).

For `Nc1nn(-c2ccccc2)c(N)c1N=Nc1ccccc1F`, the IC50 [2] was > 100 µM (active).

With `CCOC(=O)c1nc(Nc2ccc(N3CCC(C)CC3)cc2)c2ccccc2n1` the IC50 [2] was 26.9 µM (active).

With `CCCCN(C(=O)C1CC(=O)N(c2ccc(OC)cc2OC)C1)c1c(N)n(CC(C)C)c(=O)[nH]c1=O` (centres undefined) the EC50 [13] was > 112 µM (not active) and the EC50 [14] was 17.5 µM (active).

With `CCSc1ncc(/C=N/Nc2ccc(Cl)cc2)n1C` the AC50 [17] was 3.3 µM (active) and the IC50 [5] was > 50 µM (active).

In the case of `COc1ccc(C(=O)NCC(c2cccnc2)N2CCN(c3ccc(F)cc3)CC2)cc1OC` (centres undefined), the AC50 [1] is reported as < 0.005 µM (active).

For `Cc1nc2ccccc2n1/C(=N/S(=O)(=O)c1ccc(Br)cc1)c1ccccc1`, the EC50 [13] was > 112 µM (not active) and the EC50 [14] was > 112 µM (not active).

For `Cn1c(=O)c(-c2cc(O)[nH]n2)c(O)c2ccccc21`, the EC50 [15] was > 300 µM (not active) and the EC50 [16] was 23.3 µM (active).

In the case of `O=C(CSc1nnc(CNC(=O)c2c(F)cccc2F)o1)NCc1ccco1`, the IC50 [9] is reported as 14 µM (active).

In the case of `Cc1ccc(NC(=O)Nc2cccc(Cl)c2)c(C(=O)O)c1`, the EC50 [13] is reported as 17.2 µM (active) and the EC50 [14] is reported as > 112 µM (not active).

In the case of `O=C(NCc1ccncc1)/C(=C/c1cccc([N+](=O)[O-])c1)NC(=O)c1ccccc1`, the EC50 [13] is reported as > 112 µM (not active) and the EC50 [14] is reported as > 112 µM (not active).

For `CN1C(=O)C(=Cc2ccc(Sc3ccccc3)o2)C(=O)N(C)C1=S`, the EC50 [15] was > 300 µM (not active) and the EC50 [16] was > 300 µM (not active).

In the case of `Cc1nc(C(F)(F)F)c(C(=O)NN=C(N)c2ccccn2)s1`, the EC50 [10] is reported as 11.5 µM (active), the EC50 [11] is reported as > 120 µM (not active) and the EC50 [12] is reported as > 120 µM (not active). The IC50 [2] was 8.03 µM (active) and the AC50 [18] was 5.45 µM (active).

With `O=C(COC(=O)c1cc(-c2cccs2)nc2ccccc12)NCc1ccco1` the IC50 [9] was 9.73 µM (active).

With `O=C(CN1C(=O)N/C(=C\c2ccccc2OCc2ccc(C(=O)O)cc2)C1=O)Nc1ccc(F)cc1` the IC50 [9] was 9.09 µM (active).

In the case of `COC(=O)c1c(NC(=O)C2C3CCC(C3)C2C(=O)O)sc2c1CCCCC2` (centres undefined), the IC50 [3] is reported as > 66 µM (inactive) and the IC50 [4] is reported as > 66 µM (inactive).

In the case of `CCCCCCN1C(=O)NC(=O)/C(=C\NCCCn2ccnc2)C1=O`, the EC50 [15] is reported as > 300 µM (not active) and the EC50 [16] is reported as > 300 µM (inconclusive).

With `COc1cccc(/C=N/NC(=O)c2ccc(O)nn2)c1O` the EC50 [15] was 31.7 µM (active).

With `CSCCC1NC(=O)N(CC(=O)Nc2ccc(Br)cc2Br)C1=O` (centres undefined) the EC50 [13] was > 112 µM (not active) and the EC50 [14] was > 112 µM (not active).

In the case of `COc1ccc(N2CCN(C(=O)CCNS(=O)(=O)c3ccccc3)CC2)cc1`, the AC50 [1] is reported as 8.08 µM (active).

For `Cc1onc(-c2c(Cl)cccc2Cl)c1C(=O)N1CCc2ccccc2C1`, the EC50 [13] was > 112 µM (not active), the EC50 [14] was > 112 µM (not active) and the AC50 [6] was 22.4 µM (inconclusive).

For `NNc1nc2ccc(F)cc2s1`, the AC50 [1] was 4.94 µM (active).

With `CC1CCN(C(=O)COC(=O)CCc2c[nH]c3ccccc23)CC1` the IC50 [5] was 2.53 µM (active).

For `COc1ccccc1C(=O)C1CCCN(C(=O)c2cccnc2SC)C1` (centres undefined), the EC50 [15] was > 300 µM (not active) and the EC50 [16] was > 300 µM (not active).

In the case of `CC(C)[N+](C)(CCC(C(N)=O)(c1ccccc1)c1ccccc1)C(C)C` [ISOPROPAMIDE IODIDE], the IC50 [9] is reported as 3.27 µM (active).

For `Cc1cc(C(=O)N/N=C/c2cccc([N+](=O)[O-])c2O)[nH]n1`, the IC50 [2] was 7.33 µM (active).

For `Cc1cc(NC(=O)CSC2=NCCS2)no1`, the IC50 [3] was > 66 µM (inactive) and the IC50 [4] was > 66 µM (inactive).

In the case of `CCCC(=O)NC(=S)Nc1cccc(Cl)c1N1CCCC1`, the AC50 [17] is reported as 4.17 µM (active), the IC50 [3] is reported as > 66 µM (inactive) and the IC50 [4] is reported as > 66 µM (inactive).

For `O=C(O)C1CCCN1c1nc(Cl)ccc1[N+](=O)[O-]` (centres undefined), the IC50 [3] was > 66 µM (inactive) and the IC50 [4] was > 66 µM (inactive).

With `Cn1c(=O)[nH]c(=O)c2c1nc(Br)n2CCCSc1nc2ccccc2o1` the EC50 [19] was 1.32 µM (active), the EC50 [20] was 15.8 µM (active) and the AC50 [1] was < 0.005 µM (active).

With `Cc1ccc(C)n1-c1ccc2c(c1)COC2=O` the EC50 [15] was > 300 µM (not active) and the EC50 [16] was > 300 µM (not active).

With `O=C1NC(c2ccccn2)Nc2sc3c(c21)CCC3` (centres undefined) the IC50 [2] was 54.2 µM (active).

— ChEMBL document CHEMBL1201862, “PubChem BioAssay data set” (2004)
